Biological target: T1, GSG2 (Haspin) (Homo sapiens, UniProt Q8TF76)
T1 construct: purchased Thermo Fisher Scientific (Life Technologies) SelectScreen
Test: SelectScreen Adapta
Format: biochemical
Procedure, shortened: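 Compound tested in SelectScreen activity assays, Z'LYTE for CSF1R, CDK1/cyclin B and MAP2K6 and Adapta for CAMK1. ATP for CAMK1 was listed as 10, and Km app was used for CSF1R. Results are expressed in percent.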

T1 sequence (Q8TF76 whole entry): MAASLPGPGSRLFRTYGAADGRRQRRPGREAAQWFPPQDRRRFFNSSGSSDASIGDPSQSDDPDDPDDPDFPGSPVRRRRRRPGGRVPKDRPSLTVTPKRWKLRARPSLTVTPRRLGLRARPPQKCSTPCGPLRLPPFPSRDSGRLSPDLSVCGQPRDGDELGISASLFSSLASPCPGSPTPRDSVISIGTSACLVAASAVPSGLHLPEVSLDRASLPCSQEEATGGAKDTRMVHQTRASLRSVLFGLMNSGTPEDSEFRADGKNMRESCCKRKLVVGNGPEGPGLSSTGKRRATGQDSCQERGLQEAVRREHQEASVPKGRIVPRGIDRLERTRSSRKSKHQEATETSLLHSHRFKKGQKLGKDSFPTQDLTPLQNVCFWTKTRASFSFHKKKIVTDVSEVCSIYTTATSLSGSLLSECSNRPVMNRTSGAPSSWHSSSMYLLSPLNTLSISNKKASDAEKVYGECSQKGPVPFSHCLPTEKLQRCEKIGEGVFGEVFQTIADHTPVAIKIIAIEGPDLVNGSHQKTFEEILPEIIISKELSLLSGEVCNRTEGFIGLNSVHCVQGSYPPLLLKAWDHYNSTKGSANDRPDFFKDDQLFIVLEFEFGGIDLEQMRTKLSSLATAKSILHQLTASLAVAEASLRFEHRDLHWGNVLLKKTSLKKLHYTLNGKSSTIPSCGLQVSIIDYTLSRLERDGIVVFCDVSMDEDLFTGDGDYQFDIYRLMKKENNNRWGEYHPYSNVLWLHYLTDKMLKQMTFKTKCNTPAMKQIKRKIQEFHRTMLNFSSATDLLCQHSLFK

For `CN(C(=O)CN1CCOCC1)c1ccc2sc3c(-c4cccc5c(=O)cc(N6CC7CCC(C6)O7)oc45)cccc3c2c1` [NU5455], the inhibition at 1 µM was -15%.
